Laboratory results reported in patent US4758558A, “N-(substituted)-[7-(2-cyanoacetamido)cephalosporanic]amide derivatives having antibiotic utility” (priority 1982, dated 1988).

How the values were obtained:
[1] = test system: Lactobacillus bifidus; test: Effect on intestinal bacteria: number of Lactobacillus bifidus in feces; format: in vivo, ICR mice; settings: mouse, in vivo, po, 500 mg/kg/day
Description: (§1) (b) Effect on the intestinal bacterial colonies: […]
(§2) Effects of the present compound on intestinal bacteria
(§3) Each of the present compounds respectively produced in Examples 1 to 18 was orally administered continuously for 2 days at a daily dose rate of 500 mg/kg body weight to each of five female ICR mice of each group after 6 weeks of their birth.
(§4) Each of the two fecal specimens respectively collected from each mouse before and after one day of the administration was diluted with 100 times by weight of an anaerobic diluent (a phosphoric acid buffer solution) and was ground in a mortar, and 0.1 ml of the thus ground material was smeared on each of the following culture media for the following bacteria, and the thus inoculated culture media were incubated under the following conditions. Thereafter, the number of the following bacteria in each of the thus cultured media was determined.
BS agar 37° C., 5 days, […]

[2] = test system: a species of Streptococcus; test: Effect on intestinal bacteria: number of a sp. of Streptococcus in feces; format: in vivo, ICR mice; settings: mouse, in vivo, po, 500 mg/kg/day
Description: as §1, §2, §3, §4
a species of Streptococcus
TATAC agar 37° C., one day, […]

[3] = test system: a species of Bacteroides; test: Effect on intestinal bacteria: number of a sp. of Bacteroides in feces; format: in vivo, ICR mice; settings: mouse, in vivo, po, 500 mg/kg/day
Description: as §1, §2, §3, §4
a species of Bacteroides
NBGT agar 37° C., 5 days, […]

[4] = test system: a species of Lactobacillus; test: Effect on intestinal bacteria: number of a sp. of Lactobacillus in feces; format: in vivo, ICR mice; settings: mouse, in vivo, po, 500 mg/kg/day
Description: as §1, §2, §3, §4
a species of Lactobacillus
LBS agar 37° C., 5 days, […]

[5] = test system: Pseudomonas aeruginosa; test: Effect on intestinal bacteria: number of Pseudomonas aeruginosa in feces; format: in vivo, ICR mice; settings: mouse, in vivo, po, 500 mg/kg/day
Description: as §2, §3, §4
NAC agar 37° C., one day, […]

[6] = test system: Escherichia coli IFO 12734; test: Antibacterial activity in vitro (MIC) against Escherichia coli; format: cell-based; settings: IFO12734, Mueller-Hinton agar, 18 to 24 hours, 37° C., read-out: MIC (minimum growth inhibiting concentration) against Escherichia coli
Description: (§5) (c) Anti-bacterial activity (in vitro):
(§6) Minimum concentration of the present compound inhibiting the growth of the following bacteria was determined according to the standard procedures of Japan Society of Chemotherapy:
Escherichia coli IFO 12734 and
(§7) Determination of the antibacterial activity of the present compound produced in Examples 1 to 18, respectively was carried out according to the standard procedures of Japan Society of Chemotherapy for finding MIC (the minimum concentration of a specimen to inhibit the growth of a species of bacteria).
(§8) A series of diluted solutions of each of the present compound were mixed with 9 times by weight of Mueller-Hinton's culture medium as the culture medium for determining the sensitivity of a bacterial species, and flat agar culture plates were prepared by using the thus obtained mixture.
(§9) Each of the liquids respectively containing one of the bacterial species shown in Table 2 was smeared onto each of the thus prepared flat agar culture plates with a platinum loop, in length of about 2 cm, and the thus treated plates were incubated for 18 to 24 hours at 37° C. Thereafter, by observing the growth state of each bacterial species on the cultured plates, the minimum concentration of each compound completely inhibiting the growth of each bacterial species was found.

[7] = test system: Escherichia coli; test: Effect on intestinal bacteria: number of Escherichia coli in feces; format: in vivo, ICR mice; settings: after oral administration for 2 days, 500 mg/kg/day, female ICR mice; before: 6.4
Description: (b) Effect on the intestinal bacterial colonies:
[…] Each portion of the two kinds of the feces was cultured at 25° C. or 37° C. in a variety of culture medium for one to five days to see the state of Escherichia coli, Pseudomonas aeruginosa, a Streptococcus species, a Lactobacillus species, Lactobacillus bifidus and a Bacteroides species in the culture medium.
as §2
Each of the two fecal […] by weight of an anaerobic diluent (a phosphoric acid buffer solution) and was ground in a mortar, and 0.1 ml of the thus ground material was smeared on each of the following culture media for the following bacteria, and the thus inoculated culture media were incubated under the following conditions. Thereafter, the number of the following bacteria in each of the thus cultured media was determined.

[8] = test system: Staphylococcus aureus IAM 1011; test: Antibacterial activity in vitro (MIC) against Staphylococcus aureus; format: cell-based; settings: IAM1011, Mueller-Hinton agar, 18 to 24 hours, 37° C., read-out: MIC (minimum growth inhibiting concentration) against Staphylococcus aureus
Description: as §5, §6
Staphylococcus aureus IAM 1011
as §7, §8, §9

| Compound | Number of Lactobacillus bifidus after the administration [1] | Number of a sp. of Streptococcus after the administration [2] | Number of a sp. of Bacterioides after the administration [3] | Number of a sp. of Lactobacillus after the administration [4] | Number of Pseudomonas aeruginosa after the administration [5] | MIC [6] | Number of Escherichia coli after the administration [7] | MIC [8] |
| --- | --- | --- | --- | --- | --- | --- | --- | --- |
| COC(=O)Cc1ccc(NC(=O)C2=C(C)CSC3C(NC(=O)[C@H](N)c4ccccc4)C(=O)N23)cc1 (stereo partly drawn) [Example 4, N-(4-carbomethoxymethylphenyl)-[7-(D-alpha-aminophenylacetamido)desacetoxycephalosporanic]amide] | 8.3 Log10 (number of bacteria/g feces) | 6.8 Log10 (number of bacteria/g feces) | 8.3 Log10 (number of bacteria/g feces) | 8.9 Log10 (number of bacteria/g feces) | < 3.0 Log10 (number of bacteria/g feces) | ≥ 100 µg/mL | 6.6 Log10 (number of bacteria/g feces) | ≥ 100 µg/mL |
| COC(=O)CNC(=O)c1ccc(NC(=O)C2=C(COC(C)=O)CSC3C(NC(=O)CC#N)C(=O)N23)cc1 (centres unmarked) [Example 9, N-(4-carbomethoxymethylcarbamoylphenyl)-[7-(2-cyanoacetamido)cephalosporanic]amide] | 8.4 Log10 (number of bacteria/g feces) | 6.7 Log10 (number of bacteria/g feces) | 8.5 Log10 (number of bacteria/g feces) | 8.9 Log10 (number of bacteria/g feces) | < 3.0 Log10 (number of bacteria/g feces) | ≥ 100 µg/mL | 6.5 Log10 (number of bacteria/g feces) | ≥ 100 µg/mL |
| COC(=O)Cc1ccc(NC(=O)C2=C(COC(C)=O)CSC3C(NC(=O)CC#N)C(=O)N23)cc1 (centres unmarked) [Example 8, N-(4-carbomethoxymethylphenyl)-7-[(2-cyanoacetamido)cephalosporanic]amide] | 8.4 Log10 (number of bacteria/g feces) | 6.6 Log10 (number of bacteria/g feces) | 8.9 Log10 (number of bacteria/g feces) | 9.1 Log10 (number of bacteria/g feces) | < 3.0 Log10 (number of bacteria/g feces) | ≥ 100 µg/mL | 6.6 Log10 (number of bacteria/g feces) | ≥ 100 µg/mL |
| CC(=O)OCC1=C(C(=O)Nc2ccc(C(N)=O)cn2)N2C(=O)C(NC(=O)CC#N)C2SC1 (centres unmarked) [Example 11, N-(nicotinic amido)-[7-(2-cyanoacetamido)cephalosporanic]amide] | 8.2 Log10 (number of bacteria/g feces) | 6.7 Log10 (number of bacteria/g feces) | 8.6 Log10 (number of bacteria/g feces) | 9.1 Log10 (number of bacteria/g feces) | < 3.0 Log10 (number of bacteria/g feces) | ≥ 100 µg/mL | 6.8 Log10 (number of bacteria/g feces) | ≥ 100 µg/mL |
| Cc1nnc(SCC2=C(C(=O)Nc3ccc(C(=O)O)cc3)N3C(=O)C(NC(=O)Cn4cnnn4)C3SC2)s1 (centres unmarked) [Example 12, N-(4-carboxyphenyl)-{7-(1-1H-tetrazolylacetamido)-3-[2-(5-methyl-1,3,4-thiadiaziolyl)thiomethyl]-3-cephem-4-carboxylic}amide] | 8.2 Log10 (number of bacteria/g feces) | 6.7 Log10 (number of bacteria/g feces) | 8.8 Log10 (number of bacteria/g feces) | 8.9 Log10 (number of bacteria/g feces) | < 3.0 Log10 (number of bacteria/g feces) | ≥ 25 µg/mL | 6.5 Log10 (number of bacteria/g feces) | ≥ 1.56 µg/mL |
| COC(=O)Cc1ccc(NC(=O)C2=C(COC(C)=O)CSC3C(NC(=O)CSc4ccncc4)C(=O)N23)cc1 (centres unmarked) [Example 2, N-(4-carbomethoxymethylphenyl)-[7-(4-pyridylthioacetamido)caphalosporanic]amide] | 8.6 Log10 (number of bacteria/g feces) | 6.6 Log10 (number of bacteria/g feces) | 8.7 Log10 (number of bacteria/g feces) | 9.0 Log10 (number of bacteria/g feces) | < 3.0 Log10 (number of bacteria/g feces) | ≥ 100 µg/mL | 6.5 Log10 (number of bacteria/g feces) | ≥ 50 µg/mL |
| COC(=O)Cc1ccc(NC(=O)C2=C(CSc3nnc(C)s3)CSC3C(NC(=O)Cn4cnnn4)C(=O)N23)cc1 (centres unmarked) [Example 14, N-(4-carbomethoxymethylphenyl)-{7-(1-1H-tetrazolylacetamido)-3-[2-(5-methyl-1,3,4-thiadiazolyl)thiomethyl]-3-cephem-4-carboxylic}amide] | 8.2 Log10 (number of bacteria/g feces) | 6.6 Log10 (number of bacteria/g feces) | 8.4 Log10 (number of bacteria/g feces) | 9.0 Log10 (number of bacteria/g feces) | < 3.0 Log10 (number of bacteria/g feces) | ≥ 100 µg/mL | 6.4 Log10 (number of bacteria/g feces) | ≥ 12.5 µg/mL |
